Measured values reported in patent publication US9227957B2, “Pesticidal pyrimidine compounds” (Dow AgroSciences, LLC, priority 2012, dated 2016).

Assays:
Conditions in all cases: 120 h, read-out: percent control or mortality rate
[1] = tested on: beet armyworm (Spodoptera exigua); assay: 128 well diet tray insecticidal bioassay, beet armyworm
[2] = tested on: corn earworm (Helicoverpa zea); assay: 128 well diet tray insecticidal bioassay, corn earworm
[3] = tested on: cabbage looper (Trichoplusia ni (Huebner)); assay: 128 well diet tray insecticidal bioassay, cabbage looper

What does the source list for `O=C(Nc1nc(OCC(F)(F)F)cc(OCC(F)(F)F)n1)Nc1ccc(C(F)(F)F)s1` [Compound 1, 3-(4,6-bis(2,2,2-trifluoroethoxy)pyrimidin-2-yl)-1-(5-(trifluoromethyl)thiophen-2-yl)urea]?
mortality at 50 µg/cm2 [1]: < 80%; mortality at 50 µg/cm2 [2]: 80 to 100%

What does the source list for `Cc1ccsc1NC(=O)Nc1nc(OCC(F)(F)F)cc(OCC(F)(F)F)n1` [Compound 37]?
mortality at 50 µg/cm2 [1]: 80 to 100%; mortality at 50 µg/cm2 [3]: < 80%

With `O=C(Nc1nc(OCC(F)(F)F)cc(OCC(F)(F)F)n1)Nc1sccc1Cl` [Compound 32] as the compound, how does the mortality at 50 µg/cm2 [1] read?
Its mortality at 50 µg/cm2 is 80 to 100%.

`O=C(Nc1nc(OCC(F)(F)F)cc(OCC(F)(F)F)n1)Nc1sccc1Br` [Compound 45] was tested. Which mortality at 50 µg/cm2 [1] did it give?
Its mortality at 50 µg/cm2 is under 80%.

For `CC(=O)OCN(C(=O)Nc1ccc(C(F)(F)F)s1)c1nc(OCC(F)(F)F)cc(OCC(F)(F)F)n1` [Compound 5], which mortality at 50 µg/cm2 [1] is on record?
The mortality at 50 µg/cm2 was 80 to 100%.

And the mortality at 50 µg/cm2 [2]?
Its mortality at 50 µg/cm2 is 80 to 100%.

What does the source list for `CN(C(=O)Nc1nc(OCC(F)(F)F)c(F)c(OCC(F)(F)F)n1)c1ccc(C(F)(F)F)s1` [Compound 13]?
mortality at 50 µg/cm2 [1]: 80 to 100%; mortality at 50 µg/cm2 [2]: 80 to 100%

`COc1c(Cl)csc1NC(=O)Nc1nc(OCC(F)(F)F)cc(OCC(F)(F)F)n1` [Compound 25] was tested. Which mortality at 50 µg/cm2 [1] did it give?
Its mortality at 50 µg/cm2 is 80 to 100%.

And the mortality at 50 µg/cm2 [3]?
The mortality at 50 µg/cm2 was 80 to 100%.

With `Cc1csc(N(C)C(=O)Nc2nc(OCC(F)(F)F)cc(OCC(F)(F)F)n2)c1` [Compound 34] as the compound, how does the mortality at 50 µg/cm2 [3] read?
Its mortality at 50 µg/cm2 is 80 to 100%.

How did the mortality at 50 µg/cm2 [3] turn out when `Cc1ccsc1N(C)C(=O)Nc1nc(OCC(F)(F)F)cc(OCC(F)(F)F)n1` [Compound 31] was run?
The mortality at 50 µg/cm2 was under 80%.

How did the mortality at 50 µg/cm2 [1] turn out when `O=C(Nc1nc(OCC(F)(F)F)cc(OCC(F)(F)F)n1)Nc1sc(Cl)c(Cl)c1Cl` [Compound 44] was run?
Its mortality at 50 µg/cm2 is 80 to 100%.

And the mortality at 50 µg/cm2 [3]?
The mortality at 50 µg/cm2 was 80 to 100%.

What does the source list for `CC(=O)OCN(C(=O)N(C)c1ccc(C(F)(F)F)s1)c1nc(OCC(F)(F)F)c(F)c(OCC(F)(F)F)n1` [Compound 19]?
mortality at 50 µg/cm2 [1]: 80 to 100%; mortality at 50 µg/cm2 [2]: 80 to 100%

How did the mortality at 50 µg/cm2 [1] turn out when `CC(=O)OCN(C(=O)N(C)c1ccc(C(F)(F)F)s1)c1nc(OCC(F)(F)F)cc(OCC(F)(F)F)n1` [Compound 8] was run?
Its mortality at 50 µg/cm2 is 80 to 100%.

And the mortality at 50 µg/cm2 [2]?
Its mortality at 50 µg/cm2 is 80 to 100%.

With `CN(C(=O)Nc1nc(OCC(F)(F)F)cc(OCC(F)(F)F)n1)c1sccc1Cl` [Compound 28] as the compound, how does the mortality at 50 µg/cm2 [1] read?
Its mortality at 50 µg/cm2 is under 80%.

Which mortality at 50 µg/cm2 [3] does the source give for `Cc1ccc(N(C)C(=O)Nc2nc(OCC(F)(F)F)cc(OCC(F)(F)F)n2)s1` [Compound 39] here?
Its mortality at 50 µg/cm2 is 80 to 100%.

Which results are given for `COCN(C(=O)Nc1ccc(C(F)(F)F)s1)c1nc(OCC(F)(F)F)cc(OCC(F)(F)F)n1` [Compound 4, 3-(methoxymethyl)-3-(4,6-bis(2,2,2-trifluoroethoxy)pyrimidin-2-yl)-1-(5-(trifluoromethyl)thiophen-2-yl)urea]?
mortality at 50 µg/cm2 [1]: 80 to 100%; mortality at 50 µg/cm2 [2]: 80 to 100%

How did the mortality at 50 µg/cm2 [1] turn out when `CN(C(=O)N(COCc1ccccc1)c1nc(OCC(F)(F)F)cc(OCC(F)(F)F)n1)c1ccc(C(F)(F)F)s1` [Compound 9] was run?
Its mortality at 50 µg/cm2 is 80 to 100%.

What about the mortality at 50 µg/cm2 [2] of the same compound?
The mortality at 50 µg/cm2 was 80 to 100%.

With `CN(C(=O)Nc1nc(OCC(F)(F)F)cc(OCC(F)(F)F)n1)c1cc(C#N)cs1` [Compound 38] as the compound, how does the mortality at 50 µg/cm2 [3] read?
Its mortality at 50 µg/cm2 is 80 to 100%.

For `COCN(C(=O)Nc1ccc(C(F)(F)F)s1)c1nc(OCC(F)(F)F)c(F)c(OCC(F)(F)F)n1` [Compound 15], which mortality at 50 µg/cm2 [1] is on record?
Its mortality at 50 µg/cm2 is 80 to 100%.

How did the mortality at 50 µg/cm2 [3] turn out when `COc1c(Cl)csc1N(C)C(=O)Nc1nc(OCC(F)(F)F)cc(OCC(F)(F)F)n1` [Compound 35] was run?
Its mortality at 50 µg/cm2 is under 80%.

What does the source list for `CN(C(=O)Nc1nc(OCC(F)(F)F)cc(OCC(F)(F)F)n1)c1ccc(C(F)(F)F)s1` [Compound 2, 3-(4,6-bis(2,2,2-trifluoroethoxy)pyrimidin-2-yl)-1-methyl-1-(5-(trifluoromethyl)thiophen-2-yl)urea]?
mortality at 50 µg/cm2 [1]: 80 to 100%; mortality at 50 µg/cm2 [2]: 80 to 100%

`COCN(C(=O)N(C)c1ccc(C(F)(F)F)s1)c1nc(OCC(F)(F)F)cc(OCC(F)(F)F)n1` [Compound 7] was tested. Which mortality at 50 µg/cm2 [1] did it give?
Its mortality at 50 µg/cm2 is 80 to 100%.

What about the mortality at 50 µg/cm2 [2] of the same compound?
The mortality at 50 µg/cm2 was 80 to 100%.

What does the source list for `O=C(Nc1nc(OCC(F)(F)F)c(F)c(OCC(F)(F)F)n1)Nc1ccc(C(F)(F)F)s1` [Compound 12]?
mortality at 50 µg/cm2 [1]: 80 to 100%; mortality at 50 µg/cm2 [2]: 80 to 100%

Which mortality at 50 µg/cm2 [3] does the source give for `COc1ccsc1N(C)C(=O)Nc1nc(OCC(F)(F)F)cc(OCC(F)(F)F)n1` [Compound 36] here?
Its mortality at 50 µg/cm2 is under 80%.

Which results are given for `CN(C(=O)Nc1nc(OCC(F)(F)F)cc(OCC(F)(F)F)n1)c1cc(-c2ccc(Cl)cc2)cs1` [Compound 26]?
mortality at 50 µg/cm2 [1]: 80 to 100%; mortality at 50 µg/cm2 [3]: 80 to 100%

Which mortality at 50 µg/cm2 [1] does the source give for `COCN(C(=O)N(COCc1ccccc1)c1nc(OCC(F)(F)F)cc(OCC(F)(F)F)n1)c1ccc(C(F)(F)F)s1` [Compound 10, 3-(benzyloxymethyl)-3-(4,6-bis(2,2,2-trifluoroethoxy)pyrimidin-2-yl)-1-(methoxymethyl)-1-(5-(trifluoromethyl)thiophen-2-yl)urea] here?
The mortality at 50 µg/cm2 was 80 to 100%.

What about the mortality at 50 µg/cm2 [2] of the same compound?
The mortality at 50 µg/cm2 was 80 to 100%.
